Results: US9096663B2, “Compositions and methods for treating conditions related to ephrin signaling with cupredoxins and mutants thereof” (The Board of Trustees of the University of Illinois, priority 2001, dated 2015)

Assays:
Type in all cases: cell-based, human
Astrocytoma CCF-STTG1 = experiment: MTT assay, astrocytoma CCF-STTG1; conditions: 75 μM, 24 h, 37° C.
Experimental: (§1) Cytotoxicity effects were determined by MTT assay. […] Percent cytotoxicity is expressed as percentage of ceil death as compared to that of untreated control (0% cytotoxicity).
(§2) Approximately 2×10^4 cells per well were seeded into 96-well culture plates in 100 μl of RPMI 1640 medium. […] After 24 or 48 h treatment, 10 μl of 5 mg/ml MTT solution was added to the culture and incubated for 1 h at 37° C. The MTT reaction was terminated by the addition of 40 mM HCl in isopropanol. The MTT formazan formed was measured spectrophotometrically as described earlier (Mosmann, 1983). Untreated control cells were compared to treated cells for determining viability and therefore a measure of cytotoxicity.

[1] = system: MCF-7 breast cancer cells; experiment: MCF-7 cell growth, cells counted in coulter counter
Experimental: The extent of cell growth inhibition was about 25% at 5 ug/ml of the 18-mer synthetic peptide as compared to untreated control.

Glioblastoma LN-229 = experiment: MTT assay, glioblastoma LN-229; conditions: 24 h; for induction of cell death, LN-229: 75 μM, 37° C.
Experimental: as §1, §2

Sequence | induction of cell death, CCF-STTG1 (Astrocytoma CCF-STTG1) | inhibition of MCF-7 cell growth vs untreated control ([1]; 5 ug/ml) | inhibition of MCF-7 cell growth vs untreated cells ([1]; 50 ug/ml, 48 to 72 hours) | induction of cell death, LN-229 (Glioblastoma LN-229) | dose dependence of cytotoxicity, glioblastoma LN-229 (Glioblastoma LN-229; 10, 25, 50, 75, 100 μM)
TFDVSKLKEGEQYMFFCT [Azu 96-113] | showed induction of cell death | about 25% | 50% | showed induction of cell death | increasing peptide concentrations led to increasing cytotoxicity
VRIKLSTPGVYGVYCE [Plc 70-84] | showed induction of cell death |  |  | showed induction of cell death | 
